Test results reported in PubChem BioAssay AID330 (DTP/NCI, 2004).
Inconclusive results and toxic doses are left out.

Tested on: P388 leukemia ip, CD2F1 mice, survival T/C
Assay: NCI In Vivo Anticancer Drug Screen. Data for tumor model P388 Leukemia (intraperitoneal) in CD2F1 (CDF1) mice
Conditions: endpoint: median survival time, higher = longer survival
In short: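 Mice carrying the transplanted tumor received test compound or vehicle. Survival was recorded in each group, and the value is the treated-group measurement divided by that of the vehicle-treated control group.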

[1] = dose: 50.0 mg/kg/injection, schedule: Q01DX005 (ip), vehicle: Klucel (hydroxypropylcellulose) (HPC)
[2] = dose: 100.0 mg/kg/injection, schedule: Q01DX005 (ip), vehicle: Klucel (hydroxypropylcellulose) (HPC)
[3] = dose: 200.0 mg/kg/injection, schedule: Q01DX005 (ip), vehicle: Klucel (hydroxypropylcellulose) (HPC)
[4] = dose: 60.0 mg/kg/injection, schedule: Q01DX005 (ip), vehicle: saline with Tween-80
[5] = dose: 120.0 mg/kg/injection, schedule: Q01DX005 (ip), vehicle: saline with Tween-80
[6] = dose: 240.0 mg/kg/injection, schedule: Q01DX005 (ip), vehicle: saline with Tween-80
[7] = dose: 50.0 mg/kg/injection, schedule: Q01DX009 (ip), vehicle: saline with Tween-80
[8] = dose: 100.0 mg/kg/injection, schedule: Q01DX009 (ip), vehicle: saline with Tween-80
[9] = dose: 200.0 mg/kg/injection, schedule: Q01DX009 (ip), vehicle: saline with Tween-80

For CCC[CH2][Sn]1([CH2]CCC)[O]C(=O)C[S]1, the T/C (dose: 0.75 mg/kg/injection, schedule: Q01DX009 (ip), vehicle: saline) was 100 % of control, the T/C (dose: 1.5 mg/kg/injection, schedule: Q01DX009 (ip), vehicle: saline) was 108 % of control and the T/C (dose: 2.0 mg/kg/injection, schedule: Q01DX009 (ip), vehicle: saline with Tween-80) was 115 % of control. The T/C (dose: 2.0 mg/kg/injection, schedule: Q04DX003 (ip), vehicle: saline with Tween-80) was 118 % of control and the T/C (dose: 4.5 mg/kg/injection, schedule: Q04DX003 (ip), vehicle: saline with Tween-80) was 150 % of control.
In the case of Nc1nc2nc(N=Nc3ccc(S(=O)(=O)O)cc3)[nH]c2c(=O)[nH]1, the T/C [1] is reported as 104 % of control, the T/C [2] is reported as 104 % of control and the T/C [3] is reported as 104 % of control.
C/C=C(\C)C(=O)N/N=C/c1cccc(OC)c1O was tested, and the T/C [1] was 95 % of control, the T/C [2] was 92 % of control and the T/C [3] was 96 % of control.
In the case of CC(=O)OC1C2C(OC3OC(=O)/C(=C\C=C4\CCCC(C)(C)C4)C32)O[C@H]1OC(C)=O (some centres not stated), the T/C (dose: 6.25 mg/kg/injection, schedule: Q01DX005 (ip), vehicle: Klucel (hydroxypropylcellulose) (HPC)) is reported as 105 % of control, the T/C (dose: 12.5 mg/kg/injection, schedule: Q01DX005 (ip), vehicle: Klucel (hydroxypropylcellulose) (HPC)) is reported as 113 % of control and the T/C (dose: 25.0 mg/kg/injection, schedule: Q01DX005 (ip), vehicle: Klucel (hydroxypropylcellulose) (HPC)) is reported as 86 % of control.
With N#Cc1ccc(N2CCCC2)c(C#N)c1Cl the T/C [1] was 100 % of control, the T/C [2] was 96 % of control and the T/C [3] was 99 % of control.
With COCOC(/C=C/C=C/CCCCOCc1ccccc1)CCC/C=C(\C)CO (configuration not stated) the T/C (dose: 50.0 mg/kg/injection, schedule: Q01DX001 (ip), vehicle: saline with Tween-80) was 104 % of control, the T/C (dose: 100.0 mg/kg/injection, schedule: Q01DX001 (ip), vehicle: saline with Tween-80) was 102 % of control and the T/C (dose: 200.0 mg/kg/injection, schedule: Q01DX001 (ip), vehicle: saline with Tween-80) was 103 % of control.
In the case of CC1SC2(C(=O)Nc3ccccc32)N(c2ccc(Cl)cc2)C1=O (configuration not stated), the T/C [4] is reported as 101 % of control, the T/C [5] is reported as 103 % of control and the T/C [6] is reported as 96 % of control.
With c1ccc2c(c1)Sc1ccccc1N2Cc1cnc[nH]1 the T/C (dose: 50.0 mg/kg/injection, schedule: Q01DX009 (ip), vehicle: Klucel (hydroxypropylcellulose) (HPC)) was 101 % of control, the T/C (dose: 50.0 mg/kg/injection, schedule: Q01DX009 (ip), vehicle: alcohol) was 114 % of control and the T/C (dose: 100.0 mg/kg/injection, schedule: Q01DX009 (ip), vehicle: Klucel (hydroxypropylcellulose) (HPC)) was 109 % of control. For the same compound, the T/C (dose: 100.0 mg/kg/injection, schedule: Q01DX009 (ip), vehicle: alcohol) was 114 % of control and the T/C (dose: 200.0 mg/kg/injection, schedule: Q01DX009 (ip), vehicle: Klucel (hydroxypropylcellulose) (HPC)) was 118 % of control.
O=C1OC2C(O)C(N(O)c3ccccc3)OC2[C@@H]1O (some centres not stated) was tested, and the T/C [4] was 100 % of control, the T/C [5] was 106 % of control and the T/C [6] was 106 % of control.
For O=C(N/N=C/c1ccccc1O)c1ccccc1-n1cccc1, the T/C [7] was 95 % of control, the T/C [8] was 104 % of control and the T/C [9] was 94 % of control.
c1cc(-c2cc3ccc(C4=NCCN4)cc3s2)ccc1C1=NCCN1 was tested, and the T/C (dose: 25.0 mg/kg/injection, schedule: Q04DX003 (ip), vehicle: saline) was 115 % of control and the T/C (dose: 50.0 mg/kg/injection, schedule: Q04DX003 (ip), vehicle: saline) was 115 % of control.
With CCC(C)C(=O)/C=C/c1ccc(Cl)c(Cl)c1 (configuration not stated) the T/C [7] was 99 % of control, the T/C [8] was 99 % of control and the T/C [9] was 99 % of control.
In the case of COc1ccc(C2=C(Cl)C(=O)N(c3ccc(O)cc3)C(=O)C2(Cl)Cl)cc1, the T/C (dose: 100.0 mg/kg/injection, schedule: Q04DX002 (ip), vehicle: Klucel (hydroxypropylcellulose) (HPC)) is reported as 106 % of control, the T/C (dose: 200.0 mg/kg/injection, schedule: Q04DX002 (ip), vehicle: Klucel (hydroxypropylcellulose) (HPC)) is reported as 107 % of control and the T/C (dose: 400.0 mg/kg/injection, schedule: Q04DX002 (ip), vehicle: Klucel (hydroxypropylcellulose) (HPC)) is reported as 116 % of control.
